What was measured:
Nitric oxide synthase 1 = Nitric oxide synthase 1 (Rattus norvegicus, UniProt P29476); experiment: Inhibition of recombinant rat nNOS assessed as conversion of L-arginine to citrulline after 30 mins
[1] = Selectivity ratio of IC50 for eNOS (unknown origin) to IC50 for recombinant rat nNOS
[2] = Drug metabolism in human liver microsomes after 20 mins; assay type: ADME; conditions: read-out: Drug metabolism
Nitric oxide synthase 3 = Nitric oxide synthase 3 (Homo sapiens, UniProt P29474); experiment: Inhibition of eNOS (unknown origin)
Nitric oxide synthase 3, sequence (P29474 whole entry, looked up): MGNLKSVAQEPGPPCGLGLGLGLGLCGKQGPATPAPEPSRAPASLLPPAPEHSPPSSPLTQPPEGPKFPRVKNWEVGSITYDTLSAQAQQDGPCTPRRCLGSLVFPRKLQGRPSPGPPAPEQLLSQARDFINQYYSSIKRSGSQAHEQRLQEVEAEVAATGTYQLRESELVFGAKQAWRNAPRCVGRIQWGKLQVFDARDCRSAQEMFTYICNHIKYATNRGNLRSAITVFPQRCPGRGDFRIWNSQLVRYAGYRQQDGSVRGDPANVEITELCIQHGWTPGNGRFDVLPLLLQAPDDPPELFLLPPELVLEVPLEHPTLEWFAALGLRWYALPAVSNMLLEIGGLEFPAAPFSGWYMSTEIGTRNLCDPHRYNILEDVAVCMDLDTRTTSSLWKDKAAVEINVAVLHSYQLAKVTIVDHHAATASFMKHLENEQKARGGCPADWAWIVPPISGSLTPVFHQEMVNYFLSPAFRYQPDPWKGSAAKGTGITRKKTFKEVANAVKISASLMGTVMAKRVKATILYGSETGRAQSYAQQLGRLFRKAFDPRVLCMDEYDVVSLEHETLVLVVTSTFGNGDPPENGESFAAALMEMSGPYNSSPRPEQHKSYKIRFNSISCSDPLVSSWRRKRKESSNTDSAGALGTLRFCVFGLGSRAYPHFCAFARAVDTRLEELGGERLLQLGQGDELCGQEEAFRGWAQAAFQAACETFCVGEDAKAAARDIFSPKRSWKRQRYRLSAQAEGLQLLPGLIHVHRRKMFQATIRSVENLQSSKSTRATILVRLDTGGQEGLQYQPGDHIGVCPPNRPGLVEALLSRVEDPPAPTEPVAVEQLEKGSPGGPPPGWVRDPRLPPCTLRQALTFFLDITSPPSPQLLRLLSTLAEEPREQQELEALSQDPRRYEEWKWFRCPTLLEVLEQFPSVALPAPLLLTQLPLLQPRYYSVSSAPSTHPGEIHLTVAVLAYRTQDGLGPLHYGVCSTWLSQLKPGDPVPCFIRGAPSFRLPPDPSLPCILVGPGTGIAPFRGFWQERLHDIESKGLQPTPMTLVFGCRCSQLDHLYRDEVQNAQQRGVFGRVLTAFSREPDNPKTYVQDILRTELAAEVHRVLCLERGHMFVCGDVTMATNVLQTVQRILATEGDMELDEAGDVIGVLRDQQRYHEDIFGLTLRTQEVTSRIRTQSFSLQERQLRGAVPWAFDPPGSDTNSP

Nitric oxide synthase 1, sequence (P29476 whole entry): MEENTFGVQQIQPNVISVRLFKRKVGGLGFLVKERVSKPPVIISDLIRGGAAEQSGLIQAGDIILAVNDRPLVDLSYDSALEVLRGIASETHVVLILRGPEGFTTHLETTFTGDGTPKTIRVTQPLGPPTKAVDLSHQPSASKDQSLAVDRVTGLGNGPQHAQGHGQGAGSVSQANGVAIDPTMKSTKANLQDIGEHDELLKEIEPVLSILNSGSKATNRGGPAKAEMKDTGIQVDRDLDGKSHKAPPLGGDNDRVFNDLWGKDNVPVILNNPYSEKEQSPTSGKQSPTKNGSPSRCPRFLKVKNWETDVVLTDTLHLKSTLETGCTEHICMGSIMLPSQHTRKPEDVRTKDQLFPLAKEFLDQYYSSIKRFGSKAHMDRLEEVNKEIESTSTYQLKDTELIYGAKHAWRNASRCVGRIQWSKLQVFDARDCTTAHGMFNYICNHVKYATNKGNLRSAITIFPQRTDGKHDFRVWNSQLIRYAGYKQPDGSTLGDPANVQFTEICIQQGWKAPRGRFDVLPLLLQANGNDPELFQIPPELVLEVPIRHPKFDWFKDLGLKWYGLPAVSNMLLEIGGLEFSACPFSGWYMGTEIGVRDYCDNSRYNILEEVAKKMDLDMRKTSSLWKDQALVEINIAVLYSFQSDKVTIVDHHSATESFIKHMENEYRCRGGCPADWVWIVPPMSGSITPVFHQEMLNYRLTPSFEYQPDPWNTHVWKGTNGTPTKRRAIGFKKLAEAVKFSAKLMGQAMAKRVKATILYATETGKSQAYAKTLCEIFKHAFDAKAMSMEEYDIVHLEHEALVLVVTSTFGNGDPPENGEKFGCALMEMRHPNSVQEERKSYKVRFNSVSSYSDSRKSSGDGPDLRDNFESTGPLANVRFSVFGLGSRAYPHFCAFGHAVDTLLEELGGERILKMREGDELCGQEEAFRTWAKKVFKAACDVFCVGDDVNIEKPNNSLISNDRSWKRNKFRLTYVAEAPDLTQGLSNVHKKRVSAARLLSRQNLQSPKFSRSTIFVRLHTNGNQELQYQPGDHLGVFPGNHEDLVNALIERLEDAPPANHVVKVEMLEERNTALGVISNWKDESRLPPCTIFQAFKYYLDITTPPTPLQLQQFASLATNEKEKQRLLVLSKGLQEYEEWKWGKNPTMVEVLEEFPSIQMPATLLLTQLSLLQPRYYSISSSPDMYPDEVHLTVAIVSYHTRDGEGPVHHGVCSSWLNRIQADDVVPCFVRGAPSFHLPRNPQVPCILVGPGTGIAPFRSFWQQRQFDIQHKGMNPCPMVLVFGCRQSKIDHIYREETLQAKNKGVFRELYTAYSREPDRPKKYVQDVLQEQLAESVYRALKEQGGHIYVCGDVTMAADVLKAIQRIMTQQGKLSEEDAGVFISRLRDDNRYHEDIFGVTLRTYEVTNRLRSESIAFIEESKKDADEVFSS

IC50 (Nitric oxide synthase 1) [µM] | Ratio IC50 [1] | metabolised at 20 min [2] [%] | IC50 (Nitric oxide synthase 3) [µM] | Compound
0.551 | 42 | 16 | 23 | CC(C)S(=O)(=O)N1CCC(O)(c2cccc(NC(=N)c3cccs3)c2)CC1
0.694 | 14 | 54 | 10 | CCCCNC(=O)N1CCC(O)(c2cccc(NC(=N)c3cccs3)c2)CC1
0.706 | 26 | 25 | 18.2 | CCCS(=O)(=O)N1CCC(O)(c2cccc(NC(=N)c3cccs3)c2)CC1
0.376 | 159 | 77 | 60.1 | N=C(Nc1cccc(C2(O)CCN(C(=O)OCc3ccccc3)CC2)c1)c1cccs1

Compound | IC50 (Nitric oxide synthase 1) [µM] | Ratio IC50 [1] | metabolised at 20 min [2] [%] | IC50 (Nitric oxide synthase 3) [µM]
N=C(Nc1cccc(C2(O)CCN(CCc3cccc(Cl)c3Cl)CC2)c1)c1cccs1 | 0.129 | 775 | 23 | 100
N=C(Nc1cccc(C2(O)CCN(CCc3cccc(Cl)c3)CC2)c1)c1cccs1 | 0.131 | 438 | 39 | 57.5
N=C(Nc1cccc(C2(O)CCN(CCc3ccc(Cl)c(Cl)c3)CC2)c1)c1cccs1 | 0.017 | 1660 | 32 | 28.3

From ChEMBL document CHEMBL3217688, “Structure-based design, synthesis, and profiling of potent and selective neuronal nitric oxide synthase (nNOS) inhibitors with an amidinothiophene hydroxypiperidine scaffold” (Medchemcomm, 2011)
